In patent US10183919B2 (priority 2014, dated 2019):
Counter-ions that a name gives are not always drawn. Like-named read-outs stand apart in the source and are kept apart here.

Legend:
Human MOR = molecular target: T1, Human MOR (Homo sapiens, UniProt P35372); experiment: cell-based
T1 construct: expressed in transfected cells; host or cells: HEK-293T
Source text: (§1) Transfection. Human or mouse MOR cDNA was transfected alongside GαoB with RLuc8 inserted at position 91 (GαoB-RLuc8), Gβ1 (β1), and Gγ2 fused to the full-length mVenus at its N terminus (mVenus-γ2) into HEK-293T cells (5×10^6 cells/plate) in 10-cm dishes using PEI (Polysciences Inc.; Warrington, Pa.) in a 1:1 ratio diluted in Opti-MEM (Life Technologies Corp.; Grand Island, N.Y.) to assay for G protein activation as described previously (Rives, M.-L. et al. J. Biol. Chem. 2012, 287, 27050-4; Negri, A.; Rives, M.-L.; Caspers, M. J. et al. J. Chem. Inf. Model. 2013, 53, 521-526). Cells were maintained in the Dulbecco's Modified Eagle Medium (high glucose #11965; Life Technologies) supplemented with 10% FBS (Premium Select, Atlanta Biologicals; Atlanta, Ga.) and 100 U/mL penicillin and 100 μg/mL streptomycin (#15140, Life Technologies). After 24 hours the media was changed, and the experiment was performed 24 hours later (48 hours after transfection).
(§2) BRET. Transfected cells were dissociated and resuspended in phosphate-buffered saline (PBS). Approximately 200,000 cells/well were added to a black-framed, white well 96-well plate (#60050; Perkin Elmer; Waltham, Mass.). The microplate was centrifuged and the cells were resuspended in PBS. Then 5 μM of the luciferase substrate coelenterazine H was added to each well for 5 minutes. Following coelenterazine H addition, ligands were added and the BRET signal was measured at 5 minutes on a PHERAstar FS plate reader. Quantification of the BRET signal required calculating the ratio of the light emitted by the energy acceptor, mVenus (510-540 nm), over the light emitted by the energy donor, RLuc8 (485 nm). […] Dose response curves were fit using three-parameter logistics equation in GraphPad Prism 6.

Mouse MOR = molecular target: T2, Mouse MOR (Mus musculus, UniProt P42866); experiment: BRET G protein activation assay, HEK-293T cells transfected with mouse MOR; assay type: cell-based
T2 construct: expressed in transfected cells; host or cells: HEK-293T
Source text: as §1, §2

[1] = Pharmacokinetics and brain distribution after a single intraperitoneal dose; conditions: i.p. 10 mg/kg, male C57BL/6 mice
Experimental: For each compound, a group of twenty four male mice were administered with a solution formulation of the drug in normal saline intraperitoneally at a dose of 10 mg/kg. Blood samples (approximately 60 μL) were collected under light isoflurane anesthesia from the retro orbital plexus at 0.08, 0.25, 0.5, 1, 2, 4, 8 and 24 hr. Plasma samples were separated by centrifugation of whole blood and stored below −70° C. until bioanalysis. Immediately after collection of blood, brain samples were collected from each mouse at 0.08, 0.25, 0.5, 1, 2, 4, 8 and 24 hr. Brain samples were homogenized using ice-cold phosphate buffer saline (pH 7.4) and homogenates were stored below −70° C. until analysis. Total homogenate volume was three times the tissue weight. All samples were processed for analysis by protein precipitation using acetonitrile (ACN) and analyzed with fit-for-purpose LC/MS/MS method (LLOQ-1.01 ng/mL in plasma and brain). Pharmacokinetic parameters were calculated using the non-compartmental analysis tool of Phoenix WinNonlin® (Version 6.3).

[2] = BRET G protein activation, HEK-293T, mean ± SEM of independent trials, read-out: EC50 Mouse MOR

T2 sequence (P42866 whole entry): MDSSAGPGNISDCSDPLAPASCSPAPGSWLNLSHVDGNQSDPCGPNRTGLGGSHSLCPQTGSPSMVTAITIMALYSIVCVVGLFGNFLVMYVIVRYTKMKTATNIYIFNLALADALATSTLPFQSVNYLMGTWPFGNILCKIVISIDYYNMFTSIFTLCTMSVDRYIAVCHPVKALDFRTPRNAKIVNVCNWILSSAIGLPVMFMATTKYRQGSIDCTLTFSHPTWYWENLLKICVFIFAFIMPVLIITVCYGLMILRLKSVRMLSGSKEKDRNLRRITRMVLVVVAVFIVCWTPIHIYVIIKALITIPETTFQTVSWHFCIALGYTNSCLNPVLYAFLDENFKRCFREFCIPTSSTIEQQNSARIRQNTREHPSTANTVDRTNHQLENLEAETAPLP
T1 sequence (P35372 whole entry): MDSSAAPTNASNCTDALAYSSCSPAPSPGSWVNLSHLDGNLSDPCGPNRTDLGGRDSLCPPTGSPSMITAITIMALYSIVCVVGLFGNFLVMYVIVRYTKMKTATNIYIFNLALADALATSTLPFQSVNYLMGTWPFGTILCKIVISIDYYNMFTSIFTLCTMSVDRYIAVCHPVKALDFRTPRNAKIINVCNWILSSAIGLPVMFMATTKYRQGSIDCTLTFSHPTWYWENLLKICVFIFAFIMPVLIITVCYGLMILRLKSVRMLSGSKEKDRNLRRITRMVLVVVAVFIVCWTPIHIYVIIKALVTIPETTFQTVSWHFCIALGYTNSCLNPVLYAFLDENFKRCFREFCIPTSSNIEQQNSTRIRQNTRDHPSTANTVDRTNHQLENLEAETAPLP

Q: Which EC50 (Human MOR) does the source give for CNC1c2ccccc2N(C)S(=O)(=O)c2cc(Cl)ccc21 (centres unmarked) [compound 20, 3-Chloro-6-methyl-11-(methylamino)-6,11-dihydrodibenzo [c,f][1,2]thiazepine 5,5-dioxide] here?
A: Its EC50 is under 10 µM.

Q: And the EC50 (Mouse MOR; [2])?
A: Its EC50 is under 10 µM.

Q: Which results are given for COCCCNC1c2ccccc2N(C)S(=O)(=O)c2cc(Cl)ccc21 (centres unmarked) [compound 23, 3-Chloro-11-((3-methoxypropyl)amino)-6-methyl-6,11-dihydrodibenzo [c,f][1,2]thiazepine 5,5-dioxide]?
A: EC50 (Human MOR): 0.264 ± 0.0853 µM; EC50 (Mouse MOR; [2]): 1.2 ± 0.03 µM; AUClast ([1]; brain): 335.03 ng·h/g; CL ([1]; brain): 260.44 mL/min/kg; MRTlast ([1]; brain): 1.27 h; T1/2 ([1]; brain): 5.12 h; Tmax ([1]; brain): 0.08 h; half-life compared with tianeptine ([1]; Tables 3 and 4): much longer half-life; systemic exposure (AUC) compared with tianeptine ([1]; Tables 3 and 4): higher systemic exposure (AUC); AUClast ([1]; plasma): 3058.80 ng·h/mL; CL ([1]; plasma): 44.27 mL/min/kg; Cmax ([1]; plasma): 1535.74 ng/mL; MRTlast ([1]; plasma): 2.29 h; T1/2 ([1]; plasma): 3.93 h; Tmax ([1]; plasma): 0.25 h

Q: For CCCCCNC1c2ccccc2N(C)S(=O)(=O)c2cc(Cl)ccc21 (centres unmarked) [compound 19, 3-Chloro-6-methyl-11-(pentylamino)-6,11-dihydrodibenzo [c,f][1,2]thiazepine 5,5-dioxide], which EC50 (Human MOR) is on record?
A: The EC50 was under 10 µM.

Q: And the EC50 (Mouse MOR; [2])?
A: The EC50 was under 10 µM.

Q: Which EC50 (Human MOR) does the source give for CCCCCNC1c2ccccc2N(C)S(=O)(=O)c2ccccc21 (centres unmarked) [compound 8, 6-Methyl-11(pentylamino)-6,11-dihydrodibenzo[c,f][1,2]thiazepine 5,5-dioxide] here?
A: Its EC50 is under 10 µM.

Q: What about the EC50 (Mouse MOR; [2]) of the same compound?
A: The EC50 was under 10 µM.

Q: Which results are given for CCOC(=O)CCCCCCNC1c2ccccc2N(C)S(=O)(=O)c2cc(SC)ccc21 (centres unmarked) [compound 45, Ethyl 7-((6-methyl-3-(methylthio)-5,5-dioxido-6,11-dihydrodibenzeo[c,f] [1,2] 1, 2lazepin-11-yl)amino) heptanotate]?
A: EC50 (Human MOR): < 10 µM; EC50 (Mouse MOR; [2]): < 10 µM

Q: For CN1c2ccccc2C(NCCCCC(=O)O)c2ccc(Cl)cc2S1(=O)=O (centres unmarked) [compound 18, 5-((3-Chloro-6-methyl-5,5-dioxido-6,11-dihydrodibenzo[c,f][1,2]thiazepin-11-yl)amino)pentanoic acid], which EC50 (Human MOR) is on record?
A: Its EC50 is under 10 µM.

Q: And the EC50 (Mouse MOR)?
A: Its EC50 is under 10 µM.

Q: Which EC50 (Human MOR) does the source give for CN1c2ccccc2C(NCCCCCCC(=O)O)c2ccccc2S1(=O)=O (centres unmarked) [compound 80, 7-((6-Methyl-5,5-dioxido-6,11-dihydrodibenzo[c,f][1,2]thiazepin-11-yl)amino)heptanoic acid hydrochloride salt] here?
A: Its EC50 is under 10 µM.

Q: What about the EC50 (Mouse MOR) of the same compound?
A: The EC50 was under 10 µM.

Q: Which results are given for CN1c2ccccc2C(NCCCCCCC(=O)O)c2ccc(Cl)cc2S1(=O)=O (centres unmarked) [tianeptine, reference compound]?
A: EC50 (Human MOR): 0.194 ± 0.07 µM; EC50 (Mouse MOR): 0.641 ± 0.12 µM
